Results published in patent US9593149B2, “Amylin and calcitonin receptor agonist” (Novo Nordisk A/S, priority 2014, dated 2017).
In brackets after ≈: the same amount, converted by molar mass. Numbered stars: 1 amine (or outer) side, 2 acyl side, 3 side chain; on linkers, the order of the positions; unused ones are H or OH. Peptide text beside a SMILES is read from it. * marks the point of attachment. C20 diacid = O=C(O)CCCCCCCCCCCCCCCCCCC(=O)*; C18 diacid = O=C(O)CCCCCCCCCCCCCCCCC(=O)*; γGlu = O=C(O)[C@H](CCC(=O)[*:2])N[*:1]

Experiment: Assay (IV) determination of solubility
Type: physicochemical
Protocol: Assay (IV)—Determination of Solubility
The mimylin peptide was dissolved in water at ˜500 nmol/ml and mixed 1:1 with a series of buffers (100 mM glycylglycine pH 3.0, 100 mM glycylglycine pH 4.0, 100 mM glycylglycine pH 5.0, 100 mM bistrispropane pH 6.0, 100 mM bistrispropane pH 6.5, 100 mM bistrispropane pH 7.0, 100 mM bistrispropane pH 7.5, 100 mM bistrispropane pH 8.0).

Compound | solubility at 18 h (pH 3.0) [µM] | solubility at 18 h (pH 4.0) [µM] | solubility at 18 h (pH 5.0) [µM] | Solubility (pH 6.0) | Solubility (pH 6.5) | Solubility (pH 7.0) | Solubility (pH 7.5) | Solubility (pH 8.0) | Solubility (pH 3.0) | Solubility (pH 4.0) | Solubility (pH 5.0) | solubility at 18 h (pH 6.0) [µM]
CC(C)C[C@H](NC(=O)[C@H](CCCNC(=N)N)NC(=O)CNC(=O)[C@H](CC(C)C)NC(=O)[C@@H](NC(=O)[C@H](C)NC(=O)[C@@H](NC(=O)[C@H](CO)NC(=O)[C@@H](NC(=O)[C@H](CCC(=O)O)NC(=O)[C@H](CO)NC(=O)[C@H](C)NC(=O)[C@H](CCC(=O)O)NC(=O)CCCCCCCCCCCCCCCCC(=O)O)C(C)C)[C@@H](C)O)C(C)C)C(=O)N[C@@H](CO)C(=O)N[C@@H](C)C(=O)N[C@@H](CCC(=O)O)C(=O)N[C@@H](CC(C)C)C(=O)N[C@@H](Cc1cnc[nH]1)C(=O)N[C@@H](CCC(=O)O)C(=O)N[C@H](C(=O)N[C@@H](C)C(=O)N[C@H](C(=O)N[C@@H](CC(C)C)C(=O)N1CCC[C@H]1C(=O)N[C@@H](CCCNC(=N)N)C(=O)N[C@H](C(=O)N[C@@H](CCC(=O)O)C(=O)N[C@H](C(=O)NCC(=O)N1CCC[C@H]1C(=O)N[C@@H](CCC(=O)O)C(=O)N[C@@H](CO)C(=O)N1CCC[C@H]1C(N)=O)[C@@H](C)O)[C@@H](C)O)[C@@H](C)O)C(C)C [compound 36, [N-terminal(C18 diacid), 5V, 9V, 20V]mimylin] ({C18 diacid}-EASEVSTAVLGRLSAELHEVATLPRTETGPESP-NH2) | 117 (≈ 436 µg/mL) | 9 (≈ 33.6 µg/mL) | 10 (≈ 37.3 µg/mL) | ≧200 μM | ≧200 μM | ≧200 μM | ≧200 μM | ≧200 μM | – | – | – | –
CC(C)C[C@H](NC(=O)[C@H](CO)NC(=O)CNC(=O)[C@H](CO)NC(=O)CNC(=O)[C@@H](NC(=O)[C@H](CCC(=O)O)NC(=O)[C@@H](NC(=O)[C@H](CCCNC(=N)N)NC(=O)[C@@H]1CCCN1C(=O)[C@H](CC(C)C)NC(=O)[C@@H](NC(=O)[C@H](C)NC(=O)[C@H](CC(C)C)NC(=O)[C@H](CCC(=O)O)NC(=O)[C@H](Cc1cnc[nH]1)NC(=O)[C@H](CC(C)C)NC(=O)[C@H](CCC(=O)O)NC(=O)[C@H](C)NC(=O)[C@H](CO)NC(=O)[C@H](CC(C)C)NC(=O)[C@H](CCCNC(=N)N)NC(=O)CNC(=O)[C@H](CC(C)C)NC(=O)[C@H](C)NC(=O)[C@H](C)NC(=O)[C@@H](NC(=O)[C@H](CO)NC(=O)[C@H](CC(C)C)NC(=O)[C@H](CCC(=O)O)NC(=O)[C@H](CO)NC(=O)[C@H](C)NC(=O)CC[C@H](NC(=O)CCCCCCCCCCCCCCCCCCC(=O)O)C(=O)O)[C@@H](C)O)[C@@H](C)O)[C@@H](C)O)[C@@H](C)O)C(N)=O [compound 62, [N-terminal(C20 diacid-gGlu), des1, 30S, 31G, 33L]mimylin] ({C20 diacid-γGlu}-ASELSTAALGRLSAELHELATLPRTETGSGSL-NH2) | – | – | – | ≧200 μM | ≧200 μM | ≧200 μM | ≧200 μM | ≧200 μM | ≧200 μM | ≧200 μM | ≧200 μM | –
CC(C)C[C@H](NC(=O)[C@H](C)NC(=O)[C@H](C)NC(=O)[C@@H](NC(=O)[C@H](CO)NC(=O)[C@H](CC(C)C)NC(=O)[C@H](CCC(=O)O)NC(=O)[C@H](CO)NC(=O)[C@H](C)NC(=O)[C@H](C)NC(=O)[C@H](CCC(=O)O)NC(=O)CC[C@H](NC(=O)CCCCCCCCCCCCCCCCCCC(=O)O)C(=O)O)[C@@H](C)O)C(=O)NCC(=O)N[C@@H](CCCNC(=N)N)C(=O)N[C@@H](CC(C)C)C(=O)N[C@@H](CO)C(=O)N[C@@H](C)C(=O)N[C@@H](CCC(=O)O)C(=O)N[C@@H](CC(C)C)C(=O)N[C@@H](Cc1cnc[nH]1)C(=O)N[C@@H](CCC(=O)O)C(=O)N[C@@H](CC(C)C)C(=O)N[C@@H](C)C(=O)N[C@H](C(=O)N[C@@H](Cc1ccc(O)cc1)C(=O)N1CCC[C@H]1C(=O)N[C@@H](CCCNC(=N)N)C(=O)N[C@H](C(=O)N[C@@H](CCC(=O)O)C(=O)N[C@H](C(=O)NCC(=O)N[C@@H](CO)C(=O)NCC(=O)N[C@@H](CO)C(=O)N1CCC[C@H]1C(N)=O)[C@@H](C)O)[C@@H](C)O)[C@@H](C)O [compound 83, [N-terminal(C20 diacid-gGlu), −1E, 1A, 23Y, 30S, 31G]mimylin] ({C20 diacid-γGlu}-EAASELSTAALGRLSAELHELATYPRTETGSGSP-NH2) | – | – | – | ≧200 μM | ≧200 μM | ≧200 μM | ≧200 μM | ≧200 μM | ≧200 μM | ≧200 μM | ≧200 μM | –
CC(C)C[C@H](NC(=O)[C@H](CCC(=O)O)NC(=O)[C@H](Cc1cnc[nH]1)NC(=O)[C@H](CC(C)C)NC(=O)[C@H](CCC(=O)O)NC(=O)[C@H](C)NC(=O)[C@H](CO)NC(=O)[C@H](CC(C)C)NC(=O)[C@H](CCCNC(=N)N)NC(=O)CNC(=O)[C@H](CC(C)C)NC(=O)[C@@H](NC(=O)[C@H](C)NC(=O)[C@@H](NC(=O)[C@@H](NC(=O)[C@H](CC(C)C)NC(=O)[C@H](CCC(=O)O)NC(=O)[C@H](CO)NC(=O)[C@H](C)NC(=O)CC[C@H](NC(=O)CCCCCCCCCCCCCCCCC(=O)O)C(=O)O)[C@@H](C)O)[C@@H](C)O)C(C)C)C(=O)N[C@@H](C)C(=O)N[C@H](C(=O)N[C@@H](CC(C)C)C(=O)N1CCC[C@H]1C(=O)N[C@@H](CCCNC(=N)N)C(=O)N[C@H](C(=O)N[C@@H](CCC(=O)O)C(=O)N[C@H](C(=O)NCC(=O)N[C@H](C(=O)NCC(=O)N[C@H](C(=O)N1CCC[C@H]1C(N)=O)[C@@H](C)O)[C@@H](C)O)[C@@H](C)O)[C@@H](C)O)[C@@H](C)O [compound 95, [N-terminal(C18 diacid-gGlu), des1, 6T, 9V, 30T, 31G, 32T]mimylin] ({C18 diacid-γGlu}-ASELTTAVLGRLSAELHELATLPRTETGTGTP-NH2) | – | – | – | ≧200 μM | ≧200 μM | ≧200 μM | ≧200 μM | ≧200 μM | ≧200 μM | ≧200 μM | ≧200 μM | –
CC(C)C[C@H](NC(=O)[C@H](CCC(=O)O)NC(=O)[C@H](Cc1cnc[nH]1)NC(=O)[C@H](CC(C)C)NC(=O)[C@H](CCC(=O)O)NC(=O)[C@H](C)NC(=O)[C@H](CO)NC(=O)[C@H](CC(C)C)NC(=O)[C@H](CCCNC(=N)N)NC(=O)CNC(=O)[C@H](CC(C)C)NC(=O)[C@@H](NC(=O)[C@H](C)NC(=O)[C@@H](NC(=O)[C@H](CO)NC(=O)[C@@H](NC(=O)[C@H](CCC(=O)O)NC(=O)[C@H](CO)NC(=O)[C@H](C)NC(=O)CC[C@H](NC(=O)CCCCCCCCCCCCCCCCC(=O)O)C(=O)O)C(C)C)[C@@H](C)O)C(C)C)C(=O)N[C@@H](C)C(=O)N[C@H](C(=O)N[C@@H](CC(C)C)C(=O)N1CCC[C@H]1C(=O)N[C@@H](CCCNC(=N)N)C(=O)N[C@H](C(=O)N[C@@H](CCC(=O)O)C(=O)N[C@H](C(=O)NCC(=O)N[C@@H](CO)C(=O)NCC(=O)N[C@@H](CO)C(=O)N1CCC[C@H]1C(N)=O)[C@@H](C)O)[C@@H](C)O)[C@@H](C)O [compound 86, [N-terminal(C18 diacid-gGlu), des1, 5V, 9V, 30S, 31G]mimylin] ({C18 diacid-γGlu}-ASEVSTAVLGRLSAELHELATLPRTETGSGSP-NH2) | – | – | – | – | ≧200 μM | ≧200 μM | ≧200 μM | ≧200 μM | ≧200 μM | ≧200 μM | ≧200 μM | 38 (≈ 139 µg/mL)
CC(C)C[C@H](NC(=O)[C@H](C)NC(=O)[C@H](C)NC(=O)[C@@H](NC(=O)[C@H](CO)NC(=O)[C@H](CC(C)C)NC(=O)[C@H](CCC(=O)O)NC(=O)[C@H](CO)NC(=O)[C@H](C)NC(=O)CC[C@H](NC(=O)CCCCCCCCCCCCCCCCCCC(=O)O)C(=O)O)[C@@H](C)O)C(=O)NCC(=O)N[C@@H](CCCNC(=N)N)C(=O)N[C@@H](CC(C)C)C(=O)N[C@@H](CO)C(=O)N[C@@H](C)C(=O)N[C@@H](CCC(=O)O)C(=O)N[C@@H](CC(C)C)C(=O)N[C@@H](Cc1cnc[nH]1)C(=O)N[C@@H](CCC(=O)O)C(=O)N[C@@H](CC(C)C)C(=O)N[C@@H](C)C(=O)N[C@H](C(=O)N[C@@H](Cc1ccc(O)cc1)C(=O)N1CCC[C@H]1C(=O)N[C@@H](CCCNC(=N)N)C(=O)N[C@H](C(=O)N[C@@H](CCC(=O)O)C(=O)N[C@H](C(=O)NCC(=O)N[C@@H](CO)C(=O)NCC(=O)N[C@@H](CO)C(=O)N[C@@H](Cc1ccc(O)cc1)C(N)=O)[C@@H](C)O)[C@@H](C)O)[C@@H](C)O [compound 80, [N-terminal(C20 diacid-gGlu), des1, 23Y, 30S, 31G, 33Y]mimylin] ({C20 diacid-γGlu}-ASELSTAALGRLSAELHELATYPRTETGSGSY-NH2) | – | – | 10 (≈ 37.9 µg/mL) | ≧200 μM | ≧200 μM | ≧200 μM | ≧200 μM | ≧200 μM | ≧200 μM | ≧200 μM | – | –
CC(C)C[C@H](NC(=O)[C@H](C)NC(=O)[C@H](C)NC(=O)[C@@H](NC(=O)[C@H](CO)NC(=O)[C@H](CC(C)C)NC(=O)[C@H](CCC(N)=O)NC(=O)[C@H](CO)NC(=O)[C@H](C)NC(=O)CC[C@H](NC(=O)CCCCCCCCCCCCCCCCC(=O)O)C(=O)O)[C@@H](C)O)C(=O)NCC(=O)N[C@@H](CCCNC(=N)N)C(=O)N[C@@H](CC(C)C)C(=O)N[C@@H](CO)C(=O)N[C@@H](C)C(=O)N[C@@H](CCC(=O)O)C(=O)N[C@@H](CC(C)C)C(=O)N[C@@H](Cc1cnc[nH]1)C(=O)N[C@@H](CCC(=O)O)C(=O)N[C@@H](CC(C)C)C(=O)N[C@@H](C)C(=O)N[C@H](C(=O)N[C@@H](CC(C)C)C(=O)N1CCC[C@H]1C(=O)N[C@@H](CCCNC(=N)N)C(=O)N[C@H](C(=O)N[C@@H](CCC(=O)O)C(=O)N[C@H](C(=O)NCC(=O)N[C@@H](CO)C(=O)NCC(=O)N[C@@H](CO)C(=O)N1CCC[C@H]1C(N)=O)[C@@H](C)O)[C@@H](C)O)[C@@H](C)O [compound 78, [N-terminal(C18 diacid-gGlu), des1, 4Q, 30S, 31G]mimylin] ({C18 diacid-γGlu}-ASQLSTAALGRLSAELHELATLPRTETGSGSP-NH2) | – | – | – | ≧200 μM | ≧200 μM | ≧200 μM | ≧200 μM | ≧200 μM | ≧200 μM | ≧200 μM | ≧200 μM | –
